Data: patent US9192161B2, “Fungicidal combinations comprising a dithiino-tetracarboxamide fungicide” (BAYER INTELLECTUAL PROPERTY GMBH, priority 2011, dated 2015)

Tested on: Venturia inaequalis
Test: Venturia test (apples)/preventive
Assay type: in vivo, Venturia inaequalis on apples
Conditions: preventive spray on young apple plants, evaluated 10 days after inoculation
Protocol: Venturia Test (Apples)/Preventive
• Solvent: 24.5 parts by weight of acetone • 24.5 parts by weight of dimethylacetamide • Emulsifier: 1 part by weight of alkylaryl polyglycol ether
To produce a suitable preparation of active compound, 1 part by weight of active compound is mixed with the stated amounts of solvent and emulsifier, and the concentrate is diluted with water to the desired concentration. To test for preventive activity, young plants are sprayed with the preparation of active compound at the stated rate of application. After the spray coating has dried on, the plants are inoculated with an aqueous conidia suspension of the causal agent of apple scab (Venturia inaequalis) and then remain for 1 day in an incubation cabinet at approximately 20° C. and a relative atmospheric humidity of 100%. The plants are then placed in a greenhouse at approximately 21° C. and a relative atmospheric humidity of approximately 90%. The test is evaluated 10 days after the inoculation. 0% means an efficacy which corresponds to that of the untreated control, while an efficacy of 100% means that no disease is observed.

SMILES	Efficacy in % found (0.4 ppm a.i.) [%]	Efficacy in % found (20 ppm a.i.) [%]	Efficacy in % found (40 ppm a.i.) [%]
COC(c1ccc(Cl)cc1Cl)C(C)NC(=O)c1cn(C)nc1C(F)F (stereo not drawn) [(10), 3-(difluoromethyl)-1-methyl-1H-pyrazole-4-carboxylic acid [2-(2,4-dichlorophenyl)-2-methoxy-1-methyl-ethyl]-amide]	18	–	–
Cn1c(=O)c2sc3c(=O)n(C)c(=O)c3sc2c1=O [(I-1), 2,6-dimethyl-1H,5H-[1,4]dithiino[2,3-c:5,6-c′]dipyrrole-1,3,5,7(2H,6H)-tetrone]	–	46	65
